Results as given in paper PMC6039436, “Radiobrominated benzimidazole-quinoline derivatives as Platelet-derived growth factor receptor beta (PDGFRβ) imaging probes” (Scientific Reports, 2018).
Values joined by “and” are separate entries in the source; they are usually repeats but may differ in a detail not shown here. Identical values can stand only once.

Columns and labels:
BxPC3-luc cells = assay: In vitro blocking study; type: cell-based; conditions: inhibitor 1, 2 or 3 at 10 µM, 10 min pretreatment
Description: Blocking studies using 1, 2, and 3 were performed (Fig. 6). Pretreatment of an excess amount of 1 or 2 decreased uptakes of [^77Br]2 in BxPC3-luc cells. The uptake of [^77Br]3 was inhibited by a pretreatment using 1 or 3 in the same way.
Figure 6 In vitro blocking studies of (a) [^77Br]2 and (b) [^77Br]3 in BxPC3-luc and MCF7 cells. Data were presented as mean ± SD for three samples. Significance was determined using a one-way ANOVA followed by Dunnett’s post hoc test (^*p < 0.001, vs control [^77Br]2 or [^77Br]3).
For in vitro blocking experiment, inhibitor (1, 2, or 3 with final concentration 10 µM) in 1 mL of medium without FBS was added to wells containing 2 × 10^5 cells/well. After 10 min incubation, [^77Br]2 or [^77Br]3 (3.7 kBq/well) in 1 mL of medium without FBS was added to each well. Radioactivity and protein concentration in the cells were determined by the same method above-mentioned.

BxPC3-luc tumor = assay: Biodistribution in BxPC3-luc tumor-bearing mice; type: in vivo, BALB/c nu/nu mice; conditions: i.v. co-injection, 1 h
Method in brief: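 BALB/c nu/nu mice bearing subcutaneous BxPC3-luc tumours received 74 kBq each of co-injected ^77Br and ^125I tracers i.v. in saline with 10% ethanol, 1% tween-80. Sacrificed 1 h postinjection; tissues weighed and gamma-counted. Values are %ID/g.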

[1] = In vitro stability in 0.1 M PBS (pH 7.4); type: physicochemical; conditions: 24 h incubation at 37 °C, purity by TLC
Description: The stability of [^77Br]2 and [^77Br]3 in 0.1 M phosphate-buffered saline (PBS) (pH 7.4) was high (93.6 ± 0.9% and 93.0 ± 0.6%, respectively). There was no significant decomposition after 24 h incubation at 37 °C for either radiotracer.
The stability of radiolabeled compounds, [^77Br]2 and [^77Br]3, were analyzed as described previously. The purities radiolabeled compounds were determined by TLC using chloroform/methanol = 5/1 and 20/1 as a developing solvent for [^77Br]2 and [^77Br]3, respectively. The results were confirmed by RP-HPLC.

[2] = n-octanol/phosphate buffer partition coefficient; type: physicochemical; conditions: n-octanol / 0.1 M phosphate buffer pH 7.4; read-out: n-octanol/phosphate buffer partition coefficient (log P)
Description: The n-octanol/phosphate buffer partition coefficients of [^77Br]2 were 2.36 ± 0.06 which were lower than [^77Br]3 (3.02 ± 0.04). These values are lower than radioiodinated compounds, [^125I]4 and [^125I]5 at 2.71 ± 0.03 and 3.19 ± 0.17, respectively.
Partition coefficients of [^77Br]2 and [^77Br]3 into n-octanol and 0.1 M phosphate buffer (PB) pH 7.4 were determined using the method described previously. The measurement was performed in quadruplicate. The partition coefficient was determined by calculating the ratio of cpm/mL of n-octanol to that of buffer and expressed as log P. Radioactivity of each layer were counted by a gamma counter.

[3] = Biodistribution in ddY mice; type: in vivo; conditions: i.v. co-injection
Method in brief: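 ddY mice got a 100 µL tail-vein injection of [^77Br]2 with [^125I]4, or [^77Br]3 with [^125I]5 (74 kBq each), in saline containing 10% ethanol and 1% tween-80. Animals were killed at 10 min, 1, 4 and 24 h; tumor-bearing mice were killed at 1 h. Resected tissues were weighed and gamma-counted with background correction, and values are %ID/g.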

COCCOc1ccc2c(c1)ncn2-c1ccc2cccc(N3CCC(NC(=O)c4cccc([77Br])c4)CC3)c2n1 [[^77Br]3, [^77Br]-N-3-bromobenzoyl-1-{2-[5-(2-methoxyethoxy)-1H-benzo[d]imidazol-1-yl]quinolin-8-yl}-piperidin-4-amine]
Uptake in BxPC3-luc cells after pretreatment with excess inhibitor (BxPC3-luc cells): inhibited | Radioactivity in Blood (BxPC3-luc tumor): 1.16 (0.02) %injected dose/gram of tissue | Radioactivity in Bone (BxPC3-luc tumor): 1.32 (0.08) %injected dose/gram of tissue | Radioactivity in Brain (BxPC3-luc tumor): 0.17 (0.02) %injected dose/gram of tissue | Radioactivity in BxPC3-luc tumor (BxPC3-luc tumor): 1.15 %injected dose/gram of tissue and 1.15 (0.35) %injected dose/gram of tissue | Radioactivity in Heart (BxPC3-luc tumor): 1.83 (0.04) %injected dose/gram of tissue | Radioactivity in Kidney (BxPC3-luc tumor): 5.95 (0.16) %injected dose/gram of tissue | Radioactivity in Large intestine (BxPC3-luc tumor): 5.53 (0.96) %injected dose/gram of tissue | Radioactivity in Liver (BxPC3-luc tumor): 19.82 (2.48) %injected dose/gram of tissue | Radioactivity in Lung (BxPC3-luc tumor): 3.02 (0.51) %injected dose/gram of tissue | Radioactivity in Muscle (BxPC3-luc tumor): 1.05 (0.18) %injected dose/gram of tissue | Radioactivity in Pancreas (BxPC3-luc tumor): 2.15 (0.13) %injected dose/gram of tissue | Radioactivity in Small intestine (BxPC3-luc tumor): 32.72 (3.10) %injected dose/gram of tissue | Radioactivity in Spleen (BxPC3-luc tumor): 2.51 (0.17) %injected dose/gram of tissue | Radioactivity in Stomach (BxPC3-luc tumor): 0.67 (0.14) %injected dose /organ | Stability in 0.1 M PBS (pH 7.4) [1]: 93.0 ± 0.6% | logP [2]: 3.02 ± 0.04 | Radioactivity in Blood ([3]; 10 min): 1.68 (0.07) %injected dose/gram tissue | Radioactivity in Bone ([3]; 10 min): 1.88 (0.15) %injected dose/gram tissue | Radioactivity in Brain ([3]; 10 min): 0.43 (0.02) %injected dose/gram tissue | Radioactivity in Heart ([3]; 10 min): 2.70 (0.24) %injected dose/gram tissue | Radioactivity in Kidney ([3]; 10 min): 5.21 (0.53) %injected dose/gram tissue | Radioactivity in Large intestine ([3]; 10 min): 0.88 (0.08) %injected dose/gram tissue | Radioactivity in Liver ([3]; 10 min): 25.80 (2.54) %injected dose/gram tissue | Radioactivity in Lung ([3]; 10 min): 3.08 (0.65) %injected dose/gram tissue | Radioactivity in Muscle ([3]; 10 min): 1.28 (0.19) %injected dose/gram tissue | Radioactivity in Pancreas ([3]; 10 min): 2.61 (0.20) %injected dose/gram tissue | Radioactivity in Small intestine ([3]; 10 min): 3.28 (0.32) %injected dose/gram tissue | Radioactivity in Spleen ([3]; 10 min): 3.05 (1.14) %injected dose/gram tissue | Radioactivity in Stomach ([3]; 10 min): 1.31 (0.22) %injected dose /organ | Radioactivity in Blood ([3]; 1 h): 0.65 (0.05) %injected dose/gram tissue | Radioactivity in Bone ([3]; 1 h): 1.60 (0.27) %injected dose/gram tissue | Radioactivity in Brain ([3]; 1 h): 0.22 (0.05) %injected dose/gram tissue | Radioactivity in Heart ([3]; 1 h): 1.14 (0.09) %injected dose/gram tissue | Radioactivity in Kidney ([3]; 1 h): 2.03 (0.33) %injected dose/gram tissue | Radioactivity in Large intestine ([3]; 1 h): 2.23 (0.75) %injected dose/gram tissue | Radioactivity in Liver ([3]; 1 h): 7.59 (0.76) %injected dose/gram tissue | Radioactivity in Lung ([3]; 1 h): 1.18 (0.10) %injected dose/gram tissue | Radioactivity in Muscle ([3]; 1 h): 0.91 (0.45) %injected dose/gram tissue | Radioactivity in Pancreas ([3]; 1 h): 1.24 (0.16) %injected dose/gram tissue | Radioactivity in Small intestine ([3]; 1 h): 14.30 (0.23) %injected dose/gram tissue | Radioactivity in Spleen ([3]; 1 h): 1.47 (0.20) %injected dose/gram tissue | Radioactivity in Stomach ([3]; 1 h): 1.10 (0.24) %injected dose /organ | Radioactivity in Blood ([3]; 4 h): 0.25 (0.04) %injected dose/gram tissue | Radioactivity in Bone ([3]; 4 h): 1.32 (0.12) %injected dose/gram tissue | Radioactivity in Brain ([3]; 4 h): 0.19 (0.01) %injected dose/gram tissue | Radioactivity in Heart ([3]; 4 h): 0.65 (0.05) %injected dose/gram tissue | Radioactivity in Kidney ([3]; 4 h): 0.65 (0.15) %injected dose/gram tissue | Radioactivity in Large intestine ([3]; 4 h): 28.99 (2.21) %injected dose/gram tissue | Radioactivity in Liver ([3]; 4 h): 2.19 (1.38) %injected dose/gram tissue | Radioactivity in Lung ([3]; 4 h): 0.45 (0.07) %injected dose/gram tissue | Radioactivity in Muscle ([3]; 4 h): 0.57 (0.24) %injected dose/gram tissue | Radioactivity in Pancreas ([3]; 4 h): 0.68 (0.10) %injected dose/gram tissue | Radioactivity in Small intestine ([3]; 4 h): 4.50 (2.02) %injected dose/gram tissue | Radioactivity in Spleen ([3]; 4 h): 0.88 (0.08) %injected dose/gram tissue | Radioactivity in Stomach ([3]; 4 h): 0.59 (0.26) %injected dose /organ | Radioactivity in Blood ([3]; 24 h): 0.39 (0.05) %injected dose/gram tissue | Radioactivity in Bone ([3]; 24 h): 1.32 (0.17) %injected dose/gram tissue | Radioactivity in Brain ([3]; 24 h): 0.20 (0.02) %injected dose/gram tissue | Radioactivity in Heart ([3]; 24 h): 0.72 (0.11) %injected dose/gram tissue | Radioactivity in Kidney ([3]; 24 h): 0.37 (0.05) %injected dose/gram tissue | Radioactivity in Large intestine ([3]; 24 h): 0.18 (0.00) %injected dose/gram tissue | Radioactivity in Liver ([3]; 24 h): 0.18 (0.04) %injected dose/gram tissue | Radioactivity in Lung ([3]; 24 h): 0.56 (0.07) %injected dose/gram tissue | Radioactivity in Muscle ([3]; 24 h): 0.54 (0.04) %injected dose/gram tissue | Radioactivity in Pancreas ([3]; 24 h): 0.68 (0.03) %injected dose/gram tissue | Radioactivity in Small intestine ([3]; 24 h): 0.18 (0.05) %injected dose/gram tissue | Radioactivity in Spleen ([3]; 24 h): 0.72 (0.24) %injected dose/gram tissue | Radioactivity in Stomach ([3]; 24 h): 0.35 (0.06) %injected dose /organ
